Reference: US10294202B2, “Pyrrolidinones as herbicides” (FMC Corporation, priority 2013, dated 2019)

Tests used:
pigweed = experiment: Test A pre-/postemergence herbicide test; type: in vivo, Amaranthus retroflexus
Procedure, shortened: (§1)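 Visual 0–100 ratings (100 = complete control) made about 10 days after treatment, greenhouse-held plants compared with untreated controls. Treatments: postemergence sprays on one- to two-leaf plants (2–10 cm tall) and preemergence directed soil sprays after planting in loam–sand, chemicals formulated in non-phytotoxic solvent containing surfactant.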

ryegrass, Italian = experiment: Test A pre-/postemergence herbicide test; type: in vivo, Lolium multiflorum; conditions: for Plant response rating, Ryegrass, Italian: 0 to 100 scale
Procedure, shortened: as §1

barnyardgrass [1] = experiment: Test A pre-/postemergence herbicide test; type: in vivo, Echinochloa crus-galli
Procedure, shortened: as §1

rice = experiment: Test C flooded paddy test; type: in vivo, Oryza sativa; conditions: Flood
Procedure, shortened: (§2)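 Visual ratings from 0, no effect, to 100, complete control, were made against untreated controls after 13–15 greenhouse days. Compounds had gone straight into paddy water 3 cm above the soil, kept at that depth, on 2-leaf-stage plants.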

barnyardgrass [2] = experiment: Test C flooded paddy test; type: in vivo, Echinochloa crus-galli; conditions: Flood
Procedure, shortened: as §2

sedge, umbrella = experiment: Test C flooded paddy test; type: in vivo, Cyperus difformis; conditions: Flood
Procedure, shortened: as §2

giant foxtail = experiment: Test A pre-/postemergence herbicide test; type: in vivo, Setaria faberii; conditions: for Plant response rating, Foxtail, Giant: 0 to 100 scale
Procedure, shortened: as §1

kochia = experiment: Test A pre-/postemergence herbicide test; type: in vivo, Kochia scoparia; conditions: for Plant response rating, Kochia: 0 to 100 scale
Procedure, shortened: as §1

ragweed = experiment: Test A pre-/postemergence herbicide test; type: in vivo, Ambrosia elatior; conditions: for Plant response rating, Ragweed: 0 to 100 scale
Procedure, shortened: as §1

ducksalad = experiment: Test C flooded paddy test; type: in vivo, Heteranthera limosa; conditions: Flood
Procedure, shortened: as §2

wheat = experiment: Test A pre-/postemergence herbicide test; type: in vivo, Triticum aestivum
Procedure, shortened: as §1

corn = experiment: Test A pre-/postemergence herbicide test; type: in vivo, Zea mays
Procedure, shortened: as §1

galium = experiment: Test A postemergence herbicide test; type: in vivo, Galium aparine
Procedure, shortened: (§3)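 Ratings compare treated with untreated plants roughly 10 days after a postemergence application made at the one- to two-leaf stage. Scoring uses 0–100, where 0 means no effect and 100 complete control.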

blackgrass = experiment: Test A postemergence herbicide test; type: in vivo, Alopecurus myosuroides
Procedure, shortened: as §3

morningglory = experiment: Test A pre-/postemergence herbicide test; type: in vivo, Ipomoea spp.
Procedure, shortened: as §1

crabgrass, large = experiment: Test A pre-/postemergence herbicide test; type: in vivo, Digitaria sanguinalis
Procedure, shortened: as §1

velvetleaf = experiment: Test A pre-/postemergence herbicide test; type: in vivo, Abutilon theophrasti
Procedure, shortened: as §1

[3] = 125 g ai/ha, visual rating, 0 to 100 scale, 0 no effect, 100 complete control, approximately 10 days, preemergence
[4] = Postemergence, 125 g ai/ha, 0 to 100 scale, 0 is no effect, 100 is complete control
[5] = preemergence, 500 g ai/ha, 0 to 100 scale, 0 is no effect and 100 is complete control
[6] = 125 g ai/ha, visual rating, 0 no effect, 100 complete control, approximately 10 days, preemergence
[7] = Postemergence, 125 g ai/ha, 0 is no effect, 100 is complete control
[8] = preemergence, 500 g ai/ha, 0 is no effect and 100 is complete control
[9] = 125 g ai/ha, scale of 0 to 100 where 0 is no effect and 100 is complete control, 13 to 15 days
[10] = 250 g ai/ha, scale of 0 to 100 where 0 is no effect and 100 is complete control, 13 to 15 days
[11] = 125 g ai/ha, 0 to 100 scale, 0 is no effect, 100 is complete control
[12] = Postemergence, 125 g ai/ha, 0 to 100 scale, 0 no effect, 100 complete control
[13] = Postemergence, 500 g ai/ha, 0 to 100 scale (0 no effect, 100 complete control)
[14] = Preemergence, 125 g ai/ha, visual rating on 0 to 100 scale (0 no effect, 100 complete control)
[15] = preemergence, 500 g ai/ha, 0 to 100 scale
[16] = 31 g ai/ha, scale of 0 to 100 where 0 is no effect and 100 is complete control, 13 to 15 days
[17] = 62 g ai/ha, scale of 0 to 100 where 0 is no effect and 100 is complete control, 13 to 15 days

O=C1NCC(c2cccc(C(F)F)c2)C1C(=O)Nc1ccccc1C(F)(F)F (racemic) [Compound 212]
100: Plant response rating, Ducksalad (ducksalad; 1000 g ai/ha, scale 0 to 100)
40: Plant response rating, Barnyardgrass (barnyardgrass [2]; 500 g ai/ha, scale 0 to 100) | Plant response rating, Blackgrass (blackgrass; [11])
60: Plant response rating, Barnyardgrass (barnyardgrass [1]; [3]) | Plant response rating, Barnyardgrass (barnyardgrass [1]; [4]) | Plant response rating, Foxtail, Giant (giant foxtail; [7]) | Galium plant response rating (0 to 100 scale, 0 is no effect, 100 is complete control) (galium; 500 g ai/ha) | Blackgrass plant response rating (0 to 100 scale, 0 is no effect, 100 is complete control) (blackgrass; 500 g ai/ha)
15: Plant response rating, Barnyardgrass (barnyardgrass [2]; [10])
90: Barnyardgrass plant response rating (0 to 100 scale, 0 is no effect, 100 is complete control) (barnyardgrass [1]; Postemergence, 500 g ai/ha) | Plant response rating, Barnyardgrass (barnyardgrass [1]; [5]) | Foxtail, Giant plant response rating (0 to 100 scale, 0 is no effect, 100 is complete control) (giant foxtail; Postemergence, 500 g ai/ha) | Plant response rating, Foxtail, Giant (giant foxtail; [8])
50: Plant response rating, Ragweed (ragweed; [8]) | Corn plant response rating (0 to 100 scale, 0 is no effect, 100 is complete control) (corn; Postemergence, 500 g ai/ha) | Plant response rating, Galium (galium; [11])
65: Plant response rating, Barnyardgrass (barnyardgrass [2]; 1000 g ai/ha, scale 0 to 100)
30: Plant response rating, Ryegrass, Italian (ryegrass, Italian; [8])
0: Plant response rating, Pigweed (pigweed; [3]) | Plant response rating, Pigweed (pigweed; [4]) | Pigweed plant response rating (0 to 100 scale, 0 is no effect, 100 is complete control) (pigweed; Postemergence, 500 g ai/ha) | Plant response rating, Pigweed (pigweed; [5]) | Plant response rating, Ryegrass, Italian (ryegrass, Italian; [6]) | Plant response rating, Ryegrass, Italian (ryegrass, Italian; [7]) | Ryegrass, Italian plant response rating (0 to 100 scale, 0 is no effect, 100 is complete control) (ryegrass, Italian; Postemergence, 500 g ai/ha) | Plant response rating, Rice (rice; [9]) | Plant response rating, Rice (rice; [10]) | Plant response rating, Rice (rice; 500 g ai/ha, scale 0 to 100) | Plant response rating, Rice (rice; 1000 g ai/ha, scale 0 to 100) | Plant response rating, Barnyardgrass (barnyardgrass [2]; [9]) | Plant response rating, Sedge, Umbrella (sedge, umbrella; [9]) | Plant response rating, Sedge, Umbrella (sedge, umbrella; [10]) | Plant response rating, Sedge, Umbrella (sedge, umbrella; 500 g ai/ha, scale 0 to 100) | Plant response rating, Sedge, Umbrella (sedge, umbrella; 1000 g ai/ha, scale 0 to 100) | Plant response rating, Kochia (kochia; [6]) | Plant response rating, Kochia (kochia; [7]) | Plant response rating, Ragweed (ragweed; [6]) | Plant response rating, Ragweed (ragweed; [7]) | Plant response rating, Ducksalad (ducksalad; [9]) | Plant response rating, Wheat (wheat; [4]) | Plant response rating, Corn (corn; [4])
20: Kochia plant response rating (0 to 100 scale, 0 is no effect, 100 is complete control) (kochia; Postemergence, 500 g ai/ha) | Plant response rating, Kochia (kochia; [8]) | Ragweed plant response rating (0 to 100 scale, 0 is no effect, 100 is complete control) (ragweed; Postemergence, 500 g ai/ha)
70: Plant response rating, Foxtail, Giant (giant foxtail; [6]) | Plant response rating, Ducksalad (ducksalad; [10]) | Wheat plant response rating (0 to 100 scale, 0 is no effect, 100 is complete control) (wheat; Postemergence, 500 g ai/ha)
75: Plant response rating, Ducksalad (ducksalad; 500 g ai/ha, scale 0 to 100)

CC1(C)NC(=O)C(C(=O)Nc2ccccc2F)C1c1ccc(F)c(F)c1 (centres unmarked) [Compound 11]
0: Plant response rating, Pigweed (pigweed; [12]) | Plant response rating, Pigweed (pigweed; [13]) | Pigweed plant response rating (pigweed; [14]) | Plant response rating, Pigweed (pigweed; [15]) | Plant response rating, Barnyardgrass (barnyardgrass [1]; [12]) | Barnyardgrass plant response rating (barnyardgrass [1]; [14]) | Plant response rating, Rice (rice; [16]) | Plant response rating, Rice (rice; [17]) | Plant response rating, Rice (rice; [9]) | Plant response rating, Rice (rice; 250 g ai/ha, scale 0 to 100) | Plant response rating, Barnyardgrass (barnyardgrass [2]; [16]) | Plant response rating, Barnyardgrass (barnyardgrass [2]; [17]) | Plant response rating, Barnyardgrass (barnyardgrass [2]; [9]) | Plant response rating, Barnyardgrass (barnyardgrass [2]; 250 g ai/ha, scale 0 to 100) | Plant response rating, Sedge, Umbrella (sedge, umbrella; [16]) | Plant response rating, Sedge, Umbrella (sedge, umbrella; [17]) | Plant response rating, Sedge, Umbrella (sedge, umbrella; [9]) | Plant response rating, Sedge, Umbrella (sedge, umbrella; 250 g ai/ha, scale 0 to 100) | Plant response rating, Foxtail, Giant (giant foxtail; Postemergence, 125 g ai/ha, 0 no effect, 100 complete control) | Plant response rating, Morningglory (morningglory; [12]) | Plant response rating, Morningglory (morningglory; [13]) | Morningglory plant response rating (morningglory; [14]) | Plant response rating, Morningglory (morningglory; [15]) | Plant response rating, Ducksalad (ducksalad; [16]) | Plant response rating, Ducksalad (ducksalad; [17]) | Plant response rating, Ducksalad (ducksalad; [9]) | Plant response rating, Ducksalad (ducksalad; 250 g ai/ha, scale 0 to 100) | Plant response rating, Wheat (wheat; [12]) | Plant response rating, Wheat (wheat; [13]) | Wheat plant response rating (wheat; [14]) | Plant response rating, Wheat (wheat; [15]) | Plant response rating, Crabgrass, Large (crabgrass, large; [12]) | Plant response rating, Corn (corn; [12]) | Plant response rating, Corn (corn; [13]) | Corn plant response rating (corn; [14]) | Plant response rating, Corn (corn; [15]) | Plant response rating, Velvetleaf (velvetleaf; [12]) | Plant response rating, Velvetleaf (velvetleaf; [13]) | Velvetleaf plant response rating (velvetleaf; [14]) | Plant response rating, Velvetleaf (velvetleaf; [15])
50: Plant response rating, Barnyardgrass (barnyardgrass [1]; [13]) | Plant response rating, Foxtail, Giant (giant foxtail; preemergence, 500 g ai/ha) | Plant response rating, Crabgrass, Large (crabgrass, large; [13])
70: Crabgrass, Large plant response rating (crabgrass, large; [14])
90: Plant response rating, Crabgrass, Large (crabgrass, large; [15])
20: Plant response rating, Barnyardgrass (barnyardgrass [1]; preemergence, 500 g ai/ha, 0 to 100 scale (0 no effect, 100 complete control)) | Foxtail, Giant plant response rating (giant foxtail; [14])
